Laboratory results as given in ChEMBL document CHEMBL1649305, “Novel protease inhibitors (PIs) containing macrocyclic components and 3(R),3a(S),6a(R)-bis-tetrahydrofuranylurethane that are potent against multi-PI-resistant HIV-1 variants in vitro” (Antimicrob Agents Chemother, 2010).
The source made the active and inactive calls. The calls are words filed in the database; no cut-off is given here.

Columns and labels:
[1] = tested on: Human immunodeficiency virus 1; assay: Antiviral activity against HIV1 expressing protease L10F/M46L/I50V/A71Vmutant infected in human MT4 cells selected at 1 uM of GRL-286 by MTT assay; assay type: functional, organism-based; details: Human immunodeficiency virus 1, MT4
[2] = tested on: Human immunodeficiency virus 1; assay: Antiviral activity against HIV1 NL4-3 infected in human MT4 cells at 1 uM after 37 passages by MTT assay; assay type: functional, organism-based
[3] = tested on: Human immunodeficiency virus 1; assay: Antiviral activity against HIV1 expressing protease L10F/M46M,I/Q61Q mutant infected in human MT4 cells selected at 1 uM of GRL-396 by MTT assay; assay type: functional, organism-based; details: Human immunodeficiency virus 1, MT4
[4] = tested on: Human immunodeficiency virus 1; assay: Antiviral activity against HIV1 expressing protease L10I/L24I/M46I/V82I/I84V mutant infected in human MT4 cells selected after 50 passages of GRL-216 by MTT assay; assay type: functional, organism-based; details: Human immunodeficiency virus 1, MT4
[5] = tested on: Human immunodeficiency virus 1; assay: Antiviral activity against HIV1 NL4-3 infected in human MT4 cells at 1 uM after 20 passages by MTT assay; assay type: functional, organism-based
[6] = Cytotoxicity against human MT2 cells after 7 days by MTT assay; assay type: cell-based
[7] = Selectivity ratio of CC50 for human MT2 cells to EC50 for HIV1 LAI infected human MT2 cells; assay type: ADME, cell-based; details: MT2 cells (CC50) and HIV1 LAI infected MT2 cells (EC50)
[8] = tested on: Human immunodeficiency virus 1; assay: Antiviral activity against HIV1 NL4-3 infected in human MT4 cells after 50 passages by MTT assay; assay type: functional, organism-based
[9] = tested on: Human immunodeficiency virus 1; assay: Antiviral activity against HIV1 expressing protease L10F/M46I/T91S mutant infected in human MT4 cells selected at 1 uM of GRL-246 by MTT assay; assay type: functional, organism-based; details: Human immunodeficiency virus 1, MT4
[10] = tested on: Human immunodeficiency virus 1; assay: Antiviral activity against HIV1 NL4-3 infected in human MT4 cells at 1 uM after 33 passages by MTT assay; assay type: functional, organism-based
[11] = tested on: Human immunodeficiency virus 1; assay: Antiviral activity against HIV1 LAI infected in human MT2 cells by MTT assay; assay type: functional, organism-based; details: Human immunodeficiency virus 1, LAI
[12] = tested on: Human immunodeficiency virus type 1 protease (Human immunodeficiency virus 1), Q72874 [L24I,V82I,I84V]; assay: Inhibition of protease L24I/V82I/I84V[…] dimerization in HIV1 infected in COS7 cells at 0.1 uM by FRET based assay; assay type: cell-based; details: COS-7
[13] = tested on: Human immunodeficiency virus 2; assay: Antiviral activity against HIV2 ROD infected in human MT2 cells by MTT assay; assay type: functional, organism-based; details: Human immunodeficiency virus 2, ISOLATE ROD
[14] = tested on: Human immunodeficiency virus 1; assay: Antiviral activity against multidrug-resistant HIV1 isolate MM containing L10I, K43T, M46L, I54V, L63P, A71V, V82A, L90M, and Q92K mutant infected in human PHA-PBMC cells by p24 Gag protein production inhibition assay; details: Human immunodeficiency virus 1, isolate MM
[15] = tested on: Human immunodeficiency virus 1; assay: Antiviral activity against HIV1 expressing protease L10F/D30N/K45I/A71V/T74S mutant infected in human MT4 cells selected at 5 uM of nelfinavir by MTT assay; assay type: functional, organism-based; details: Human immunodeficiency virus 1, MT4
[16] = tested on: Human immunodeficiency virus 1; assay: Antiviral activity against multidrug-resistant HIV1 isolate B containing protease L10I, K14R, L33I, M36I,M46I, F53I, K55R, I62V, L63P, A71V, G73S, V82A, L90M, and I93L mutant infected in human PHA-PBMC cells by p24 Gag protein production inhibition assay; details: Human immunodeficiency virus 1, isolate B
[17] = tested on: Human immunodeficiency virus 1; assay: Antiviral activity against wild type HIV1 ERS104 containing protease L63P mutant infected in human PHA-PBMC cells by p24 Gag protein production inhibition assay; details: Human immunodeficiency virus 1, ERS104, PBMC
[18] = tested on: Human immunodeficiency virus 1; assay: Antiviral activity against wild type HIV1 NL4-3 infected in human MT4 cells by p24 Gag protein production inhibition assay; details: Human immunodeficiency virus 1, NL4-3, MT4
[19] = tested on: Human immunodeficiency virus 1; assay: Antiviral activity against multidrug-resistant HIV1 isolate JSL containing L10I, L24I, I33F, E35D, M36I, N37S, M46L, I54V, R57K, I62V, L63P, A71V, G73S, and V82A mutant infected in human PHA-PBMC cells by p24 Gag protein production inhibition assay; details: Human immunodeficiency virus 1, isolate JSL
[20] = tested on: Human immunodeficiency virus 2; assay: Antiviral activity against HIV2 EHO infected in human MT2 cells by MTT assay; assay type: functional, organism-based; details: Human immunodeficiency virus 2, EHO
[21] = tested on: Human immunodeficiency virus 1; assay: Antiviral activity against HIV1 expressing protease L10F/M46I/I50V/A71V/I84V/L90M mutant infected in human MT4 cells selected at 5 uM of amprenavir by p24 Gag protein production inhibition assay; details: Human immunodeficiency virus 1, MT4
[22] = tested on: Human immunodeficiency virus 1; assay: Antiviral activity against HIV1 expressing protease L23I/E34Q/K43I/M46I/I50L/G51A/L63P/A71V/V82A/T91A mutant infected in human MT4 cells selected at 5 uM of atazanavir by p24 Gag protein production inhibition assay; details: Human immunodeficiency virus 1, MT4
[23] = tested on: Human immunodeficiency virus 1; assay: Antiviral activity against HIV1 expressing protease L10F/M46I/I54V/V82A mutant infected in human MT4 cells selected at 5 uM of Lopinavir by p24 Gag protein production inhibition assay; details: Human immunodeficiency virus 1, MT4
[24] = tested on: Human immunodeficiency virus 1; assay: Antiviral activity against multidrug-resistant HIV1 isolate TM containing L10I, K14R, R41K, M46L, I54V, L63P, A71V, V82A, L90M, and I93L mutant infected in human PHA-PBMC cells by p24 Gag protein production inhibition assay; details: Human immunodeficiency virus 1, isolate TM
[25] = tested on: Human immunodeficiency virus 1; assay: Antiviral activity against HIV1 expressing protease L10I/G48V/I54V/A71V/I84V/L90M mutant infected in human MT4 cells selected at 5 uM of saquinavir by p24 Gag protein production inhibition assay; details: Human immunodeficiency virus 1, MT4
[26] = tested on: Human immunodeficiency virus 1; assay: Antiviral activity against multidrug-resistant HIV1 isolate C containing protease L10I, I15V, K20R, L24I, M36I, M46L, I54V, I62V, L63P, K70Q, V82A, and L89M mutant infected in human PHA-PBMC cells by p24 Gag protein production inhibition assay; details: Human immunodeficiency virus 1, isolate C
[27] = tested on: Human immunodeficiency virus 1; assay: Antiviral activity against multidrug-resistant HIV1 isolate G containing L10I, V11I, T12E, I15V, L19I,R41K, M46L, L63P, A71T, V82A, and L90M mutant infected in human PHA-PBMC cells by p24 Gag protein production inhibition assay; details: Human immunodeficiency virus 1, isolate G

SMILES	EC50 [1]	EC50 [3]	EC50 [4]	CC50 at 168 h [6]	EC50 [9]	EC50 [11]	EC50 [13]	EC50 [14]	EC50 [15]	EC50 [16]	EC50 [17]	EC50 [18]	EC50 [19]	EC50 [21]	EC50 [22]	EC50 [23]	EC50 [24]	EC50 [25]	EC50 [26]	EC50 [27]	further results
COc1ccc2c(c1)OC/C=C/CCCCN(C[C@@H](O)[C@H](Cc1ccccc1)NC(=O)O[C@H]1CO[C@H]3OCC[C@H]31)S2(=O)=O	> 1000 nM	520 nM	240 nM	44.9 µM	370 nM	14 nM	–	–	–	–	–	–	–	–	–	–	–	–	–	–	Activity [2]: inactive; Activity [5]: inactive; selectivity ratio [7]: 3200; Activity [8]: inactive; Activity [10]: inactive; inhibition [12]: Active
Cc1cccc(C)c1OCC(=O)N[C@@H](Cc1ccccc1)[C@@H](O)C[C@H](Cc1ccccc1)NC(=O)[C@H](C(C)C)N1CCCNC1=O [LOPINAVIR]	> 1000 nM	280 nM	190 nM	> 100 µM	330 nM	39 nM	28 nM	> 1000 nM	37 nM	> 1000 nM	34 nM	46 nM	> 1000 nM	> 1000 nM	> 1000 nM	> 1000 nM	> 1000 nM	120 nM	> 1000 nM	–	EC50 [20]: 35 nM
CC(C)(C)NC(=O)[C@@H]1CN(Cc2cccnc2)CCN1C[C@@H](O)C[C@@H](Cc1ccccc1)C(=O)N[C@H]1c2ccccc2C[C@H]1O	–	–	–	–	–	–	–	> 1000 nM	–	> 1000 nM	43 nM	–	> 1000 nM	–	–	–	> 1000 nM	–	> 1000 nM	340 nM	–
CC(C)(C)NC(=O)[C@@H]1C[C@@H]2CCCC[C@@H]2CN1C[C@@H](O)[C@H](Cc1ccccc1)NC(=O)[C@H](CC(N)=O)NC(=O)c1ccc2ccccc2n1	–	–	–	–	–	–	–	190 nM	3 nM	270 nM	8 nM	5 nM	300 nM	26 nM	31 nM	28 nM	260 nM	> 1000 nM	32 nM	30 nM	–
COC(=O)N[C@H](C(=O)N[C@@H](Cc1ccccc1)[C@@H](O)CN(Cc1ccc(-c2ccccn2)cc1)NC(=O)[C@@H](NC(=O)OC)C(C)(C)C)C(C)(C)C [ATAZANAVIR]	–	24 nM	14 nM	–	32 nM	–	–	180 nM	27 nM	200 nM	2 nM	4 nM	430 nM	6 nM	> 1000 nM	36 nM	65 nM	210 nM	65 nM	33 nM	–
Cc1c(O)cccc1C(=O)N[C@@H](CSc1ccccc1)[C@H](O)CN1C[C@H]2CCCC[C@H]2C[C@H]1C(=O)NC(C)(C)C	–	220 nM	130 nM	–	290 nM	–	–	–	> 1000 nM	–	–	–	–	300 nM	> 1000 nM	320 nM	–	510 nM	–	–	–
COc1ccc2c(c1)OCCCCCCCCN(C[C@@H](O)[C@H](Cc1ccccc1)NC(=O)O[C@H]1CO[C@H]3OCC[C@H]31)S2(=O)=O	> 1000 nM	370 nM	260 nM	33.3 µM	420 nM	22 nM	–	–	–	–	–	–	–	–	–	–	–	–	–	–	Activity [2]: inactive; Activity [5]: inactive; Activity [8]: inactive; Activity [10]: inactive
CCC[C@@]1(CCc2ccccc2)CC(O)=C([C@H](CC)c2cccc(NS(=O)(=O)c3ccc(C(F)(F)F)cn3)c2)C(=O)O1	37 nM	42 nM	29 nM	54.1 µM	95 nM	170 nM	330 nM	350 nM	39 nM	180 nM	120 nM	320 nM	230 nM	220 nM	410 nM	310 nM	380 nM	22 nM	380 nM	240 nM	EC50 [20]: 300 nM; selectivity ratio [7]: 320
CC(C)CN(C[C@@H](O)[C@H](Cc1ccccc1)NC(=O)O[C@H]1CO[C@H]2OCC[C@H]21)S(=O)(=O)c1ccc(N)cc1	–	16 nM	–	–	29 nM	–	10 nM	–	–	–	–	–	–	290 nM	–	25 nM	–	–	–	–	–
